Results published in article PMC7113773 (Antiviral Research, 2014).

Key:
HIV = assay: MTT-based antiviral assay, HIV in MT-4 cells; assay type: cell-based, human immunodeficiency virus; conditions: maximum concentration of 100 μM, data not shown
PR8 virus [1] = assay type: cell-based, influenza A virus
[2] = test system: influenza A/H1N1, A/H3N2 and B viruses; assay: CPE reduction assay / screen, stated for the three influenza viruses together; assay type: cell-based; conditions: Influenza A virus, H1N1|H3N2, read-out: virus growth inhibition
[3] = target: PR8-derived viral RNA polymerase (Influenza A virus, UniProt P03428+P03431+P03433); assay type: cell-based; conditions: 11, 33 and 100 μM, Vero cells, FLuc normalized against RLuc, day 1
PR8 NA = PR8 NA (Influenza A virus, UniProt P03468); assay: biochemical
HSV = assay: MTT-based antiviral assay, HSV in Vero cells; assay type: cell-based, herpes simplex virus; conditions: maximum concentration of 100 μM, data not shown
PR8 virus [4] = assay type: cell-based, influenza A virus; remark: listed apart in the source
FECV = assay: MTT-based antiviral assay, FECV in CrFK cells; assay type: cell-based, feline coronavirus; conditions: maximum concentration of 100 μM, data not shown
[5] = test system: PR8 virus NP and HA protein; assay type: cell-based, influenza A virus; conditions: 11, 33 and 100 μM, 24 h at 35 °C
in vitro = conditions: dog
[6] = test system: wild-type NA derived from influenza H1N1 (A/California/04/2009); assay type: biochemical
CoxB = assay: MTT-based antiviral assay, CoxB in HeLa cells; assay type: cell-based, Coxsackie B virus; conditions: maximum concentration of 100 μM, data not shown
[7] = test system: A/Puerto Rico/8/34 (H1N1; PR8); assay: organism not typed; assay type: cell-based, influenza A virus; conditions: for EC50: MDCK, 72 h, read-out: EC50 for influenza virus A/Puerto Rico/8/34
[8] = test system: pore-forming glycoprotein perforin; conditions: previous study, ref Lena et al., 2008; cited from earlier work
A/Hong Kong/8/68 (H3N2) = assay: organism not typed; assay type: cell-based, influenza A virus; conditions: for EC50: MDCK, 72 h, read-out: EC50 for influenza virus A/Hong Kong/8/68
B/Lee/40 = assay type: cell-based, influenza B virus
PR8 virus entry = assay: Confocal microscopy of viral NP; conditions: 100 μM, MOI 2.5, 2 h at 37 °C, MDCK cells
PR8 virus [9] = assay type: cell-based, influenza A virus; remark: listed apart in the source

| SMILES | antiviral activity against HIV (HIV) | plaque titer (infectious viral titers) (PR8 virus [1]) | inhibition at 20 µM [2] | viral RNA polymerase function [3] | IC50 (PR8 NA) | antiviral activity against HSV (HSV) | vRNA levels in culture supernatants (PR8 virus [4]) | antiviral activity against FECV (FECV) | viral protein level (NP, HA) in cells [5] | CC50 (in vitro) | function of wild-type NA [6] | antiviral activity against CoxB (CoxB) | S.I. (selectivity index, CC50/EC50), A/Puerto Rico/8/34 [7] | EC50 [7] | inhibitory effect on cell lysis induced by perforin [8] | S.I. (selectivity index, CC50/EC50), A/Hong Kong/8/68 (A/Hong Kong/8/68 (H3N2)) | EC50 (A/Hong Kong/8/68 (H3N2)) | S.I. (selectivity index, CC50/EC50), B/Lee/40 (B/Lee/40) | NP signal, distribution and intensity in cells (PR8 virus entry) | HA titer (PR8 virus [9]) |
| --- | --- | --- | --- | --- | --- | --- | --- | --- | --- | --- | --- | --- | --- | --- | --- | --- | --- | --- | --- | --- |
| Cc1cc2c(c(=S)[nH]1)C(=O)O/C2=C\c1c[nH]c2ccc(F)cc12 [Compound 15a, (Z)-1-((5-Fluoro-1H-indol-3-yl)methylene)-6-methyl-4-thioxo-4,5-dihydrofuro[3,4-c]pyridin-3(1H)-one] | no antiviral activity was detected | significantly inhibited | > 50% | not changed | 0.6 ± 0.1 µM | no antiviral activity was detected | significantly inhibited | no antiviral activity was detected | Reduction of the influenza viral protein level | > 900 µM | suppressed | no antiviral activity was detected |  |  |  |  |  |  |  |  |
| Cc1cc2c(c(=S)[nH]1)C(=O)O/C2=C\c1cc2ccccc2s1 [Compound 15g, (Z)-1-(Benzo[b]thiophen-2-ylmethylene)-6-methyl-4-thioxo-4,5-dihydrofuro[3,4-c]pyridin-3(1H)-one] | no antiviral activity was detected | significantly inhibited |  |  |  | no antiviral activity was detected | significantly inhibited | no antiviral activity was detected | Reduction of the influenza viral protein level | > 900 µM |  | no antiviral activity was detected | 16.1 ± 6.0 (>55.9) | 16.1 µM | active | 10.5 ± 5.0 (>85.7) | 10.5 µM | 18.4 ± 12.8 (>48.9) |  |  |
| Cc1cc2c(c(=S)[nH]1)C(=O)O/C2=C\c1cccs1 [Compound 15q, (Z)-6-Methyl-1-(thiophen-2-ylmethylene)-4-thioxo-4,5-dihydrofuro[3,4-c]pyridin-3(1H)-one] | no antiviral activity was detected | significantly inhibited |  | not changed | 1.5 ± 0.4 µM | no antiviral activity was detected | significantly inhibited | no antiviral activity was detected | Reduction of the influenza viral protein level | > 900 µM |  | no antiviral activity was detected | 7.5 ± 3.2 (>120.0) | 7.5 µM | active | 6.8 ± 1.3 (>132.4) | 6.8 µM | 7.0 ± 3.8 (>128.6) | not affected |  |
| NC(=O)c1nc(F)c[nH]c1=O [Compound T-705, 6-flouro-3-hydroxy-2-pyrazinecarboxamide, reference compound] |  |  |  | suppressed |  |  |  |  |  | > 100 µM |  |  |  | 4.3 ± 2.4 µM |  |  | 6.5 ± 1.7 µM |  |  | 8 HAU/50 μl |
| O=C(O[C@@H]1Cc2c(O)cc(O)cc2O[C@@H]1c1cc(O)c(O)c(O)c1)c1cc(O)c(O)c(O)c1 [EGCG, (−)-epigallocatechin-3-gallate, reference compound] |  |  |  |  |  |  |  |  |  |  |  |  |  |  |  |  |  |  | reduced the overall NP signal intensity |  |
| CCC(CC)O[C@@H]1C=C(C(=O)O)C[C@H](N)[C@H]1NC(C)=O [Oseltamivir carboxylate, oseltamivir carboxylate, reference compound] |  |  |  |  |  |  |  |  |  | > 100 µM |  |  |  | 0.03 ± 0.01 µM |  |  | < 0.01 µM |  |  | no detection |
